Data taken from patent US8501794B2, “Compounds as cannabinoid receptor ligands” (priority 2007, dated 2013).

Columns and labels:
rat CB2 [1] = molecular target: T1, rat CB2 (Rattus norvegicus, UniProt Q9QZN9); experiment: rat CB2 cyclase functional assay (HitHunter cAMP, HEK cells); format: cell-based; parameters: expressed in transfected cells; host or cells: HEK; details: forskolin 18 μM
T1 sequence (Q9QZN9 1-360): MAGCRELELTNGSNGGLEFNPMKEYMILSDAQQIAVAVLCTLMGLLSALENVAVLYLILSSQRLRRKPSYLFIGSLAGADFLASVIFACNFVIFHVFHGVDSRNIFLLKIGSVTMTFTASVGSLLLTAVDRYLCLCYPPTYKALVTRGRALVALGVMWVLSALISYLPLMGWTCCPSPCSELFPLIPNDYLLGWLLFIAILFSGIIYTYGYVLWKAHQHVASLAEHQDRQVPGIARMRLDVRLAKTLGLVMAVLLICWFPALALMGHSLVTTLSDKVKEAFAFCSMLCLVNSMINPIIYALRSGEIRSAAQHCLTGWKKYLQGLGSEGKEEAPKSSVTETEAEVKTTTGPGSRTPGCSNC

rat CB2 [2] = molecular target: T1, rat CB2; experiment: rat CB2 radioligand binding assay ([3H]CP-55,940 competition); parameters: expressed in transfected cells; host or cells: HEK293
human CB2 receptors = molecular target: T2, human CB2 receptors (Homo sapiens, UniProt P34972); experiment: human CB2 radioligand binding assay ([3H]CP-55,940 competition)
T2 construct: expressed in transfected cells; host or cells: HEK293
T2 sequence (P34972 whole entry): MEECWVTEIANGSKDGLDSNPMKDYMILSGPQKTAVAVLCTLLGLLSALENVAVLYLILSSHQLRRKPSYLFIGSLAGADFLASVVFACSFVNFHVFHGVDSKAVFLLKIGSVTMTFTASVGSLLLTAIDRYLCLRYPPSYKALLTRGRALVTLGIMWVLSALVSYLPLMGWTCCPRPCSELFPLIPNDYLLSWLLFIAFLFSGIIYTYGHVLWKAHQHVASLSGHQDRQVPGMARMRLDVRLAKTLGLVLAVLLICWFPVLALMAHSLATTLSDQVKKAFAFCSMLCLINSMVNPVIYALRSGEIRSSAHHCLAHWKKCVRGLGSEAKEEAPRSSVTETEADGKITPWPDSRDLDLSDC

Structure (SMILES) | EC50 (rat CB2 [1]) | Ki (rat CB2 [2]) | Ki (human CB2 receptors)
CCCCc1cn(C(C)(C)C)s/c1=N\C(=O)[C@@H]1CC[C@](C)(C(=O)NCCO)C1(C)C [Example 212, (1S,3R)—N^3-[(5Z)-4-butyl-2-tert-butylisothiazol-5(2H)-ylidene]-N^1-(2-hydroxyethyl)-1,2,2-trimethylcyclopentane-1,3-dicarboxamide] | 6.2 nM | 257 nM | 180 nM
CCCCCc1cn(C(C)(C)C)s/c1=N\C(=O)c1cc(Cl)ccc1OC [Example 147, N-[(5Z)-2-tert-butyl-4-pentylisothiazol-5(2H)-ylidene]-5-chloro-2-methoxybenzamide] | 0.062 nM | 0.15 nM | 1.6 nM
CC/C=C\c1cn(C(C)(C)C)s/c1=N\C(=O)c1cc(Cl)ccc1OC [Example 25, N-[(5Z)-4-[(1Z)-but-1-enyl]-2-tert-butylisothiazol-5(2H)-ylidene]-5-chloro-2-methoxybenzamide] | 1.7 nM | 1.6 nM | 51 nM
COc1ccc(C#N)cc1C(=O)/N=c1\sn(C(C)(C)C)cc1Cc1ccco1 [Example 51, N-[(5Z)-2-tert-butyl-4-(2-furylmethyl)isothiazol-5(2H)-ylidene]-5-cyano-2-methoxybenzamide] | 0.3 nM | 8.1 nM | 140 nM
CON=CCCc1cn(C(C)(C)C)s/c1=N\C(=O)c1cc(Cl)ccc1OC [Example 15, N-[(5Z)-2-tert-butyl-4-[3-(methoxyimino)propyl]isothiazol-5(2H)-ylidene]-5-chloro-2-methoxybenzamide] | 1.1 nM | 15 nM | 170 nM
COc1ccc(Cl)cc1C(=O)/N=c1\sn(C(C)(C)C)cc1CCC#N [Example 19, N-[(5Z)-2-tert-butyl-4-(2-cyanoethyl)isothiazol-5(2H)-ylidene]-5-chloro-2-methoxybenzamide] | 0.57 nM | 7.1 nM | 44 nM
CCCCc1cn(C(C)(C)C)s/c1=N\C(=O)[C@@]1(C)CC[C@@H](C(=O)O)C1(C)C [Example 174, (1R,3S)-3-({[(5Z)-4-butyl-2-tert-butylisothiazol-5(2H)-ylidene]amino}carbonyl)-2,2,3-trimethylcyclopentanecarboxylic acid] | 3.4 nM | 33 nM | 62 nM
CCCCc1cn(C(C)(C)C)s/c1=N\C(=O)C1CCC(C)(C(=O)O)C1(C)C (stereo not drawn) [Example 105, 3-({[(5Z)-4-butyl-2-tert-butylisothiazol-5(2H)-ylidene]amino}carbonyl)-1,2,2-trimethylcyclopentanecarboxylic acid] | 0.11 nM | 17 nM | 19 nM
COc1ccc(Cl)cc1C(=O)/N=c1\sn(C(C)(C)C)cc1CC1CC1 [Example 8, N-[(5Z)-2-tert-butyl-4-(cyclopropylmethyl)isothiazol-5(2H)-ylidene]-5-chloro-2-methoxybenzamide] | 1 nM | 1.1 nM | 4 nM
COc1ccc(Cl)cc1C(=NC#N)/N=c1\sn(C(C)(C)C)cc1CCCC#N [Example 128, N-[(5Z)-2-tert-butyl-4-(3-cyanopropyl)isothiazol-5(2H)-ylidene]-5-chloro-N′-cyano-2-methoxybenzenecarboximidamide] | 0.26 nM | 5.8 nM | 15 nM
COc1ccc(Cl)cc1C(=O)/N=c1\sn(C(C)(C)C)cc1CC1CCCO1 (stereo not drawn) [Example 67, N-[(5Z)-2-tert-butyl-4-(tetrahydrofuran-2-ylmethyl)isothiazol-5(2H)-ylidene]-5-chloro-2-methoxybenzamide] | 3.7 nM | 3 nM | 32 nM
COc1ccc(Cl)cc1C(=O)/N=c1\sn(C(C)(C)C)cc1COCC(F)(F)F [Example 85, N-[(5Z)-2-tert-butyl-4-[(2,2,2-trifluoroethoxy)methyl]isothiazol-5(2H)-ylidene]-5-chloro-2-methoxybenzamide] | 0.42 nM | 3.5 nM | 17 nM
CCCCc1cn(C(C)(C)C)s/c1=N\C(=O)c1cc(/C(C)=N\O)ccc1OC [Example 68, N-[(5Z)-4-butyl-2-tert-butylisothiazol-5(2H)-ylidene]-5-[(1Z)-N-hydroxyethanimidoy1]-2-methoxybenzamide] | 0.022 nM | 8.3 nM | 59 nM
COc1ccc(Cl)cc1C(=O)/N=c1\sn(C(C)(C)C)cc1CCCC(F)(F)F [Example 142, N-[(5Z)-2-tert-butyl-4-(4,4,4-trifluorobutyl)isothiazol-5(2H)-ylidene]-5-chloro-2-methoxybenzamide] | 0.062 nM | 0.43 nM | 2.2 nM
